Experiment in all cases: growth of human tumour cells (NCI), 48 h
Test [1] relates to 786-0.
The subject of test [2] is BT-549.
For test [3], the system named is SF-268.
Test [4] deals with SK-MEL-2.
Test [5] has as its system KM12.
Test [6] deals with UACC-257.
In test [7] the test system is SW-620.
In test [8] the test system is HOP-92.
Test [9] concerns A498.
For test [10], the system named is OVCAR-5.
Test [11] deals with NCI-H522.
The subject of test [12] is EKVX.
Test [13] deals with A549.
In test [14] the test system is SK-MEL-5.
For test [15], the system named is MDA-MB-231.
In test [16] the test system is MDA-MB-435.
The subject of test [17] is SK-OV-3.
Test [18] relates to RXF 393.
In test [19] the test system is OVCAR-4.

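Grown in 96-well plates, cells were treated for 48 hours with each compound at five concentrations. Insufficient inhibition: endpoint recorded as highest concentration tested. Abbreviation: GI50, concentration required for 50% inhibition of growth.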 Active and inactive are the calls of the source. Rule as the data show it: active = GI50 up to about 1.1 µM and inactive = higher.

Consider eleven compounds from ChEMBL document CHEMBL1201862, “PubChem BioAssay data set” (2004).

Consider `CN1CCC2(c3ccccc3)CC(=O)/C(=C/c3ccc(Cl)c(Cl)c3)C1C2.[O-][Cl+3]([O-])([O-])O` (stereo unspecified), for which the GI50 in test [1] is 2.37 µM (inactive); in [2] it was 2.72 µM (inactive); in [3], 1.86 µM (inactive); in test [4] it was 3.74 µM (inactive); in test [5], 1.94 µM (inactive); in test [6], 9.46 µM (inactive). Moreover, the GI50 is 2.59 µM (inactive) in test [7]; 2.31 µM (inactive) in test [8]; 5.2 µM (inactive) in test [9]; 2.35 µM (inactive) in test [10]; 1.84 µM (inactive) in test [11]; 2.94 µM (inactive) in [12]. The GI50 is 3.4 µM (inactive) in [13]; 2.6 µM (inactive) in [14]; 1.69 µM (inactive) in [15]; 2.11 µM (inactive) in [16]; 4.05 µM (inactive) in [17]; 2.61 µM (inactive) in test [18]. Further, the GI50 in [19] was 2.51 µM (inactive).
For the compound `COc1cc(OC2OC(COC(=O)c3cc(O)c(O)c(O)c3)C(O)C(O)C2O)ccc1O` (stereo unspecified), the GI50 in [1] is > 100 µM (inactive); in [2], 47.3 µM (inactive); in [3] it was 82 µM (inactive); in test [4] it was > 100 µM (inactive); in test [5], 88.1 µM (inactive); in test [6], > 100 µM (inactive). The GI50 in test [7] is 40.3 µM (inactive); in test [8] it was 32.7 µM (inactive); in test [9] it was > 100 µM (inactive); in test [10], > 100 µM (inactive); in [11] it was 48 µM (inactive); in [12] it was > 100 µM (inactive). For the same compound, the GI50 was > 100 µM (inactive) in test [13]; > 100 µM (inactive) in test [14]; 34.5 µM (inactive) in test [15]; 24.4 µM (inactive) in [16]; > 100 µM (inactive) in test [18]; 55.3 µM (inactive) in test [19].
As for `CC(C)NCC(O)c1ccc(O)c2ncccc12` (stereo unspecified), the GI50 in [1] was 45.5 µM (inactive); in [2] it was > 100 µM (inactive); in [3] it was 35.3 µM (inactive); in test [4], 52.8 µM (inactive); in test [5], 54.6 µM (inactive); in [6] it was 50 µM (inactive). For the same compound, the GI50 is 36.5 µM (inactive) in test [7]; > 100 µM (inactive) in [8]; > 100 µM (inactive) in test [9]; > 100 µM (inactive) in test [10]; 47.2 µM (inactive) in test [11]; 49.3 µM (inactive) in [12]. Further, the GI50 in [13] was 6.82 µM (inactive); in test [14], 66.4 µM (inactive); in [15] it was 27 µM (inactive); in [16], > 100 µM (inactive); in [17], 21.9 µM (inactive); in test [18], 91 µM (inactive). Also, the GI50 in [19] is 68.5 µM (inactive).
For the compound `CC(C)=CCC[C@]1(C)C=Cc2c(O)c3c(c(CC=C(C)C)c2O1)O[C@]12C(=C[C@@H]4CC1C(C)(C)O[C@@]2(C/C=C(/C)C(=O)O)C4=O)C3=O`, the GI50 in test [1] was 0.488 µM (active); in [2], 1.91 µM (inactive); in [3], 1.45 µM (inactive); in test [4] it was 2.02 µM (inactive); in test [5] it was 1.02 µM (active); in test [6], 2.31 µM (inactive). The GI50 in test [7] is 0.452 µM (active); in [8], 1.78 µM (inactive); in test [9] it was 1.73 µM (inactive); in test [10] it was 1.5 µM (inactive); in test [11], 0.406 µM (active); in [12] it was 1.67 µM (inactive). Besides, the GI50 was 0.863 µM (active) in [13]; 1.07 µM (active) in [15]; 1.03 µM (active) in test [16]; 3.01 µM (inactive) in test [17]; 0.5 µM (active) in test [18]; 2.38 µM (inactive) in test [19].
As for `COP(=O)(OC)/C(=C/c1c[nH]c2ccccc12)C(=O)O`, the GI50 in test [1], in test [2], in test [4], in test [5], in test [7] and in test [8] was > 100 µM (inactive) each time. The GI50 in test [9], in [10], in [11], in test [12], in test [13] and in test [14] was > 100 µM (inactive) throughout. Also, the GI50 in test [15], in [16], in test [17], in test [18] and in [19] was > 100 µM (inactive) throughout.
Regarding `CC(=O)Nc1ccc(C(O)/C(=N/N)c2nc3ccc(Cl)cc3nc2O)cc1` (stereo unspecified), the GI50 in test [1], in test [2], in [3], in test [4], in [5] and in [6] was > 100 µM (inactive) in each case. Also, the GI50 in [7], in test [8], in [9], in test [10], in [11] and in test [12] was > 100 µM (inactive) throughout. Besides, the GI50 in test [13], in [14], in test [15], in [16], in test [18] and in test [19] was > 100 µM (inactive) each time.
On to `COc1ccc(C2=C3SC=c4ccccc4=C3ON=C2c2ccccc2)cc1`, for which the GI50 in test [1], in test [2], in [3], in test [4], in [5] and in test [6] was > 100 µM (inactive) throughout. In addition, the GI50 in test [7] is > 100 µM (inactive); in test [8], 68.1 µM (inactive); in test [9], > 100 µM (inactive); in test [10], > 100 µM (inactive); in [11] it was 53.8 µM (inactive); in test [12] it was > 100 µM (inactive). The GI50 in test [13], in test [14], in test [15], in test [16], in test [18] and in test [19] was > 100 µM (inactive) throughout.
Consider `C[C@H](CCC(=O)O)[C@H]1CC[C@H]2[C@@H]3[C@H](O)C[C@@H]4C[C@H](O)CC[C@]4(C)[C@H]3CC[C@]12C` [CHENODIOL], for which the GI50 is 36.3 µM (inactive) in test [1]; 36.3 µM (inactive) in [2]; 44.1 µM (inactive) in test [3]; 20 µM (inactive) in test [4]; 33.3 µM (inactive) in test [5]; 41.8 µM (inactive) in test [6]. The GI50 was 41.7 µM (inactive) in [7]; 30.3 µM (inactive) in [8]; 69.5 µM (inactive) in [9]; 52.6 µM (inactive) in test [10]; 25.5 µM (inactive) in test [11]; 33.8 µM (inactive) in test [12]. For the same compound, the GI50 in test [13] was 34.8 µM (inactive); in test [15] it was 49.3 µM (inactive); in test [16], 37 µM (inactive); in test [18] it was 44.7 µM (inactive); in [19] it was 51.9 µM (inactive).
For `CCOC(=O)c1cc(C2=C(S)N(CC(C)CC)CC2)c(C(=O)CC)[nH]1` (stereo unspecified), the GI50 was 16.9 µM (inactive) in [1]; 19.3 µM (inactive) in [2]; 21.9 µM (inactive) in test [3]; 22.1 µM (inactive) in [4]; 16.9 µM (inactive) in test [5]; 17.4 µM (inactive) in test [6]. Besides, the GI50 was 6.01 µM (inactive) in test [7]; 19.7 µM (inactive) in test [8]; 15.6 µM (inactive) in test [9]; 14.9 µM (inactive) in test [11]; 17.5 µM (inactive) in test [12]; 25.1 µM (inactive) in [13]. In addition, the GI50 in test [15] is 15.6 µM (inactive); in [16], 15.5 µM (inactive); in test [17], 23.5 µM (inactive); in [18] it was 20.7 µM (inactive); in test [19], 14.5 µM (inactive).
As for `O=C(C(Cl)=C(N1CCCCC1)N1CCCCC1)C(Cl)Cl`, the GI50 in test [1], in test [2], in test [3], in test [5], in test [6] and in [7] was > 100 µM (inactive) each time. In addition, the GI50 in test [8], in test [9], in test [11], in [12], in test [13] and in test [14] was > 100 µM (inactive) each time. The GI50 in test [15], in [16], in test [17], in [18] and in test [19] was > 100 µM (inactive) in each case.
As for `Cc1cc(C)c2c(c1)C1=NCCN1C2(O)c1ccc(Cl)cc1` (stereo unspecified), the GI50 was 16.1 µM (inactive) in [1]; 13.2 µM (inactive) in test [2]; 15.8 µM (inactive) in test [3]; 18.5 µM (inactive) in [4]; 15.3 µM (inactive) in [5]; 17.1 µM (inactive) in test [6]. In addition, the GI50 in test [7] was 15.6 µM (inactive); in test [8] it was 7.35 µM (inactive); in test [9] it was 15.2 µM (inactive); in [10], 16.5 µM (inactive); in test [12], 16.1 µM (inactive); in test [13], 18.2 µM (inactive). The GI50 in test [14] is 14.6 µM (inactive); in test [15], 14.6 µM (inactive); in [16], 16.7 µM (inactive); in test [17] it was 15 µM (inactive); in test [18], 13.6 µM (inactive); in [19], 15.5 µM (inactive).
